The source of these data is patent US20250154531A1, “METHODS FOR IMPROVED HOMOLOGOUS RECOMBINATION AND COMPOSITIONS THEREOF” (LIFE TECHNOLOGIES CORPORATION, priority 2017, published 2025).

One assay relates to β-actin in THP-1. The assay can be described thus: One-step knock-in of OFP with NHEJ inhibitor in THP-1 cells. It is filed as cell-based. The note with it: THP-1, in media for two days after transfection. The procedure:
(§1) Various cell types (NK-92, THP-1, Jurkat) were transfected with 1 μg TRUECUT™ Cas9 Protein v2 and 250 ng of β-actin gRNA, and 0.25 μg, 0.5 μg, or 1 μg OFP-Puro in electroporation buffer. Electroporation was performed using the NEON® Transfection System. After electroporation, the cells were cultured in media containing NHEJ inhibitor (Ku0060648) for two days, then analyzed via FACS analysis for SSC-A and OFP.

The test system of the next assay is β-actin. The assay can be described thus: One-step knock-in with two Cas9/gRNA complexes in primary T cells, knock-in efficiency. The format is cell-based, human. Conditions: in media for two days after electroporation. How it is done: (§2) Human primary T cells were isolated and activated as in Example 10. On the third day after activation, cells were transfected with 1 μg TRUECUT™ Cas9 Protein v2 with 250 ng of β-actin gRNA, 1 μg TRUECUT™ Cas9 Protein v2 with 250 ng of a guide RNA targeting the T cell receptor (TRAC gRNA), and 1 μg OFP-Puro in electroporation buffer. Electroporation was performed using the NEON® Transfection System, program 24. After electroporation, the cells were cultured in media containing NHEJ inhibitor (Ku0060648) for two days, then analyzed via FACS analysis for SSC-A and OFP.

Another assay relates to β-actin in NK-92. Briefly: One-step knock-in of OFP with NHEJ inhibitor in NK-92 cells. The format is cell-based. The note with it: NK-92, in media for two days after transfection. The procedure:
as §1

The next assay has as its system β-actin in Jurkat. The assay can be described thus: One-step knock-in of OFP with NHEJ inhibitor in Jurkat cells. The format is cell-based. Conditions: in media for two days after transfection. How it is done: as §1
The subject of assay [1] is T cell receptor (TRAC gRNA). Briefly: One-step knock-in with two Cas9/gRNA complexes in primary T cells, knock-out efficiency. The note with it: in media for two days after electroporation. It is filed as cell-based, human. How it is done:
as §2

In assay [2] the test system is genomic locus of beta-actin. The assay can be described thus: Insertion of puromycin-P2A-OFP into beta-actin locus in human primary T cells, OFP-positive cells by flow cytometry. The format is cell-based. The note with it: 30 μM in culture medium after electroporation, 48 hours. How it is done: Human peripheral blood mononuclear cells (PBMCs) were isolated from peripheral blood using Ficoll-Paque PLUS density gradient according to manufacturer's instructions. The human primary T cells were then isolated using DYNABEADS™ UNTOUCHED™ Human T Cells Kit and expanded using OPTMIZER™ CTS™ T-Cell Expansion SFM supplemented with 200 IU/mL of IL-2. The activation and expansion of human T cells were carried out using DYNABEADS™ Human T-Expander CD3/CD28 kit. On day 3 of activation, T cells were harvested for transfection.
For transfection of primary T cells, 1×10^5 cells were used per NEON® electroporation with voltage set at 1700V, pulse width set at 20 ms, and the number of pulses set at 1, respectively. To evaluate the effects of chemical modification on HDR efficiency, phosphorothioate or amine-modified nucleotides were added at specific positions of the oligonucleotides during chemical synthesis. The resulting modified oligonucleotides were then used to amplify the donor DNA. […] Cells were analyzed at 48 hours post transfection.
Linear ds- or ss-DNA donor could be degraded in vivo by exonucleases. […] At 48 hours post transfection, the percentages of OFP-positive cells were determined by flow cytometric analysis. […]
The disruption of NHEJ repair pathway is known to improve HDR efficiency. […] At 48 hours post transfection, we analyzed the cells by flow cytometry.

Take `CCN1CCN(CC(=O)Nc2ccc(-c3cccc4c(=O)cc(N5CCOCC5)oc34)c3sc4ccccc4c23)CC1` [Ku-0060648, 4-Ethyl-N-[4-[2-(4-morpholinyl)-4-oxo-4H-1-benzopyran-8-yl]-1-dibenzothienyl]-1-piperazineacetamide]: the knock-in efficiency entry in the assay with β-actin in THP-1, in the assay with β-actin in NK-92 and in the assay on β-actin in Jurkat was “increased knock-in efficiency” each time. For the same compound, the “knock-in efficiency (Q3)” value in the assay with β-actin is recorded as “increased knock-in efficiency”. For the same compound, the “knock-out efficiency (Q3 and Q4)” value in assay [1] is recorded as “without affecting knock-out efficiency”.

`O=c1cc(N2CCOCC2)oc2c1ccc1ccccc12` [Nu7026, 2-(4-Morpholinyl)-4H-naphthol[1,2-b]pyran-4-one]: the “increase of the percentage of OFP-positive cells” value in assay [2] (amine-modified donor DNA) is recorded as approximately 2 fold; in assay [2] (unmodified donor DNA) it was “approximately 5 fold”.
